Where two headings read alike, the source gives them in different places.
Columns and labels:
dengue virus (DENV) = assay: microbe, parasite or virus in culture; format: cell-based; conditions: for EC50: read-out: Dengue EC50
yellow fever virus (YFV) = assay: microbe, parasite or virus in culture; format: cell-based; conditions: for EC50: read-out: Yellow fever EC50
in vitro = conditions: chlorocebus sabaeus
[1] = Yellow fever virus, Vero B, 168 h

SMILES | EC50 (dengue virus (DENV); Dengue virus, Vero B, 168 h) | EC50 (yellow fever virus (YFV); [1]) | CC50 (in vitro; Dengue CC50) | CC50 (in vitro; Yellow fever CC50) | also measured
Cc1ccc(NC(=O)c2nc[nH]c2C(=O)Nc2ccc(F)cc2)c(-c2cc(C)n[nH]2)c1 [15a, N^5-(4-fluorophenyl)-N^4-(4-methyl-2-(3-methyl-1H-pyrazol-5-yl)phenyl)-1H-imidazole-4,5-dicarboxamide] | 2.5 µM | 3.37 µM | > 120 µM | > 120 µM | EC50 (yellow fever virus (YFV)): 3.47 µM
Cc1cc(-c2ccccc2NC(=O)c2nc[nH]c2C(=O)Nc2ccc(F)cc2)[nH]n1 [15b, N^5-(4-fluorophenyl)-N^4-(2-(3-methyl-1H-pyrazol-5-yl)phenyl)-1H-imidazole-4,5-dicarboxamide] | 6.03 µM | 1.85 µM | – | > 121 µM | CC50 at 168 h (in vitro; Dengue CC50): 21.7 µM
O=C(NCc1ccccc1-c1ccncc1)c1nc[nH]c1C(=O)Nc1ccc(F)cc1 [15c, N^5-(4-fluorophenyl)-N^4-(2-(pyridin-4-yl)benzyl)-1H-imidazole-4,5-dicarboxami-de] | 1.92 µM | 3.9 µM | – | > 120 µM | EC50 (dengue virus (DENV)): 1.93 µM; CC50 at 168 h (in vitro; Dengue CC50): 50.1 µM
O=C(NCc1ccccc1-c1ccsc1)c1nc[nH]c1C(=O)Nc1ccc(F)cc1 [15d, N^5-(4-fluorophenyl)-N^4-(2-(thiophen-3-yl)benzyl)-1H-imidazole-4,5-dicarbox amide] | 8.88 µM | 2.61 µM | – | – | CC50 at 168 h (in vitro; Dengue CC50): 17.3 µM; CC50 at 168 h (in vitro; Yellow fever CC50): 34.5 µM
O=C(NCc1ccc(-c2cccnc2)cc1)c1nc[nH]c1C(=O)Nc1ccc(F)cc1 [15e, N^5-(4-fluorophenyl)-N^4-(4-(pyridin-3-yl)benzyl)-1H-imidazole-4,5-dicarboxamide] | 42.1 µM | 11.8 µM | > 120 µM | > 118 µM | –
O=C(NCc1ccc(-c2ccsc2)cc1)c1nc[nH]c1C(=O)Nc1ccc(F)cc1 [15f, N^5-(4-fluorophenyl)-N^4-(4-(thiophen-3-yl)benzyl)-1H-imidazole-4,5-dicarboxamide] | 33.7 µM | 28.8 µM | – | > 119 µM | CC50 at 168 h (in vitro; Dengue CC50): 20.2 µM
O=C(NCc1ccc(-c2ccncc2)cc1)c1nc[nH]c1C(=O)Nc1ccc(F)cc1 [15g, N^5-(4-fluorophenyl)-N^4-(4-(pyridin-4-yl)benzyl)-1H-imidazole-4,5-dicarboxamide] | > 120 µM | > 120 µM | > 120 µM | > 120 µM | –
Cc1ccc(NC(=O)c2nc[nH]c2C(=O)Nc2ccc(F)cc2)c(-c2ccsc2)c1 [15h, N^5-(4-fluorophenyl)-N^4-(4-methyl-2-(thiophen-3-yl)phenyl)-1H-imidazole-4,5-dicarboxamide] | 48.8 µM | > 119 µM | > 117 µM | > 119 µM | –
Cc1ccc(NC(=O)c2nc[nH]c2C(=O)Nc2ccc(F)cc2)c(-c2ccco2)c1 [15i, N^5-(4-fluorophenyl)-N^4-(2-(furan-2-yl)-4-methylphenyl)-1H-imidazole-4,5-dicarboxamide] | > 124 µM | – | > 124 µM | – | –
Cc1ccc(NC(=O)c2nc[nH]c2C(=O)Nc2ccccc2)c(-c2ccsc2)c1 [15j, N^4-(4-methyl-2-(thiophen-3-yl)phenyl)-N^5-phenyl-1H-imidazole-4,5-dicarboxamide] | > 124 µM | 9.2 µM | > 124 µM | > 120 µM | –
Cc1ccc(NC(=O)c2[nH]cnc2C(=O)Nc2ccc(C)cc2-c2ccsc2)cc1 [15k, N^4-(4-methyl-2-(thiophen-3-yl)phenyl)-N^5-(p-tolyl)-1H-imidazole-4,5-dicarboxamide] | 2.02 µM | > 120 µM | > 50 µM | > 120 µM | –
Cc1ccc(NC(=O)c2[nH]cnc2C(=O)Nc2ccc(C)cc2-c2ccco2)cc1 [15l, N^4-(2-(furan-2-yl)-4-methylphenyl)-N^5-(p-tolyl)-1H-imidazole-4,5-dicarboxamide] | 3.47 µM | – | > 125 µM | – | –
Cc1ccc(NC(=O)c2nc[nH]c2C(=O)NCc2ccccc2)c(-c2ccco2)c1 [15m, N^5-benzyl-N^4-(2-(furan-2-yl)-4-methylphenyl)-1H-imidazole-4,5-dicarboxamide] | > 125 µM | – | > 125 µM | – | DENV inhibitory activity in words (dengue virus (DENV)): annihilated the inhibitory properties
Cc1ccc(NC(=O)c2nc[nH]c2C(=O)NCCc2ccc(F)cc2)c(-c2ccco2)c1 [15n, N^5-(4-fluorophenethyl)-N^4-(2-(furan-2-yl)-4-methylphenyl)-1H-imidazole-4,5-dicarboxamide] | 3.77 µM | – | > 116 µM | – | –
Cc1cnc(NC(=O)c2[nH]cnc2C(=O)Nc2ccccc2)c(-c2ccc(C)s2)c1 [15o, N^5-(5-methyl-3-(5-methylthiophen-2-yl)pyridin-2-yl)-N^4-phenyl-1H-imidazole-4,5-dicarboxamide] | > 120 µM | > 120 µM | – | > 119 µM | DENV inhibitory activity in words (dengue virus (DENV)): inactive; CC50 at 168 h (in vitro; Dengue CC50): 26.4 µM
O=C(NCc1ccc(-c2ccncc2)cc1)c1nccnc1C(=O)Nc1ccc(F)cc1 [20a, N^2-(4-fluorophenyl)-N^3-(4-(pyridin-4-yl)benzyl) pyrazine-2,3-dicarboxamide] | 0.93 µM | 7.49 µM | > 118 µM | > 120 µM | fold increase in anti-DENV potency (dengue virus (DENV)): 2 fold
Cc1ccc(NC(=O)c2nccnc2C(=O)Nc2ccc(F)cc2)c(-c2cccnc2)c1 [20b, N^2-(4-fluorophenyl)-N^3-(4-methyl-2-(pyridin-3-yl)phenyl) pyrazine-2,3-dicarboxamide] | 0.93 µM | 13.1 µM | > 118 µM | > 118 µM | DENV inhibitory activity in words (dengue virus (DENV)): strongly inhibiting
O=C(NCc1ccc(-c2cccnc2)cc1)c1nccnc1C(=O)Nc1ccc(F)cc1 [20c, N^2-(4-fluorophenyl)-N^3-(4-(pyridin-3-yl)benzyl) pyrazine-2,3-dicarboxamide] | 2.99 µM | 8.9 µM | > 115 µM | > 116 µM | –
O=C(Nc1ccc(F)cc1)c1nccnc1C(=O)Nc1ccccc1-c1ccncc1 [20d, N^2-(4-fluorophenyl)-N^3-(2-(pyridin-4-yl)phenyl) pyrazine-2,3-dicarboxamide] | 11.7 µM | 8.22 µM | > 117 µM | > 123 µM | –
O=C(Nc1ccc(F)cc1)c1nccnc1C(=O)Nc1ccccc1-c1cccnc1 [20e, N^2-(4-fluorophenyl)-N^3-(2-(pyridin-3-yl)phenyl) pyrazine-2,3-dicarboxamide] | 23.2 µM | 47.5 µM | > 120 µM | > 119 µM | –
O=C(NCc1ccccc1-c1ccncc1)c1nccnc1C(=O)Nc1ccc(F)cc1 [20f, N^2-(4-fluorophenyl)-N^3-(2-(pyridin-4-yl)benzyl) pyrazine-2,3-dicarboxamide] | 40.7 µM | 21.3 µM | > 118 µM | > 127 µM | fold decrease in activity against DENV (dengue virus (DENV)): 20 fold; fold decrease in activity against YFV (yellow fever virus (YFV)): 6 fold
Cc1ccc(NC(=O)c2nccnc2C(=O)Nc2ccc(F)cc2)c(-c2ccncc2)c1 [20g, N^2-(4-fluorophenyl)-N^3-(4-methyl-2-(pyridin-4-yl)phenyl)pyrazine-2,3-dicarbox amide] | > 117 µM | 48.4 µM | > 117 µM | > 125 µM | –
Cc1ccc(NC(=O)c2nccnc2C(=O)NCc2ccc(-c3ccncc3)cc2)cc1 [20h, N^2-(4-(pyridin-4-yl)benzyl)-N^3-(p-tolyl) pyrazine-2,3-dicarboxamide] | 16.6 µM | 36.8 µM | – | > 110 µM | CC50 at 168 h (in vitro; Dengue CC50): 74.7 µM
Cc1ccc(NC(=O)c2nccnc2C(=O)Nc2ccc(C)cc2-c2cccnc2)cc1 [20i, N^2-(4-methyl-2-(pyridin-3-yl)phenyl)-N^3-(p-tolyl) pyrazine-2,3-dicarboxamide] | 10.6 µM | 18.4 µM | – | – | CC50 at 168 h (in vitro; Dengue CC50): 47.5 µM; CC50 at 168 h (in vitro; Yellow fever CC50): 75.5 µM
Cc1ccc(NC(=O)c2nccnc2C(=O)NCc2ccc(-c3cccnc3)cc2)cc1 [20j, N^2-(4-(pyridin-3-yl)benzyl)-N^3-(p-tolyl) pyrazine-2,3-dicarboxamide] | 6.75 µM | 73.1 µM | > 116 µM | > 124 µM | –
Cc1ccc(NC(=O)c2nccnc2C(=O)Nc2ccccc2-c2ccncc2)cc1 [20k, N^2-(2-(pyridin-4-yl)phenyl)-N^3-(p-tolyl) pyrazine-2,3-dicarboxamide] | 4.71 µM | 12.5 µM | > 122 µM | > 125 µM | –
Cc1ccc(NC(=O)c2nccnc2C(=O)Nc2ccccc2-c2cccnc2)cc1 [20l, N^2-(2-(pyridin-3-yl)phenyl)-N^3-(p-tolyl) pyrazine-2,3-dicarboxamide] | 14.6 µM | > 122 µM | > 128 µM | > 122 µM | –
Cc1ccc(NC(=O)c2nccnc2C(=O)Nc2ccc(C)cc2-c2ccncc2)cc1 [20n, N^2-(4-methyl-2-(pyridin-4-yl)phenyl)-N^3-(p-tolyl) pyrazine-2,3-dicarboxamide] | 11.9 µM | 30.9 µM | > 119 µM | > 118 µM | –
